We go through four compounds from ChEMBL document CHEMBL5385890, “A JAK tyrosine kinase and pseudokinase Co-inhibition strategy combines enhanced potency and on-demand activation” (Eur J Med Chem, 2023).

Each structure is given as a SMILES string. pIC50: −log10 of the molar value. Active and inactive are the calls of the source. The calls are words filed in the database; no cut-off is given here.

Data set [1] relates to HEL. Briefly: Cytotoxicity against HEL cells assessed as inhibition of cell growth. The class given is functional, cell-based. The following applies: Homo sapiens.
Data set [2] in a line: Stability of compound in PBS measured after 24 hrs. The class given is physicochemical. The following applies: PBS, read-out: Stability.
Data set [3] is described as follows: Stability of compound in mouse plasma measured after 24 hrs. The class given is ADME, cell-free. Particulars: read-out: Stability.
A short description of data set [4]: Stability of compound in human plasma measured after 24 hrs. The class given is ADME, cell-free. Particulars: read-out: Stability.
A short description of data set [5]: Prodrug release in HEL cells assessed as N-tert-butyl-3-[[5-methyl-2-(4-piperazin-1-ylanilino)pyrimidin-4-yl]amino]benzenesulfonamide formation at 1 uM illuminated with 405 nm light for 10 mins and measured after 6 hrs by LC-MS/MS analysis. The class given is ADME, cell-based. Particulars: human, 6.167 h, time 370 min.
Data set [6] in a line: Prodrug release in HEL cells assessed as 3-cyclopropyl-1-(3-{5-[(morpholin-4-yl)methyl]-1H-1,3-benzodiazol-2-yl}-1H-pyrazol-4-yl)urea formation at 1 uM illuminated with 405 nm light for 10 mins and measured after 6 hrs by LC-MS/MS analysis. The class given is ADME, cell-based. The following applies: human, 6.167 h, time 370 min.
The nature of data set [7]: Prodrug release in HEL cells assessed as N-tert-butyl-3-[[5-methyl-2-(4-piperazin-1-ylanilino)pyrimidin-4-yl]amino]benzenesulfonamide formation at 1 uM incubated under dark condition for 6 hrs by LC-MS/MS analysis. The class given is ADME, cell-based. Particulars: human.
Data set [8] can be described thus: Prodrug release in HEL cells assessed as 3-cyclopropyl-1-(3-{5-[(morpholin-4-yl)methyl]-1H-1,3-benzodiazol-2-yl}-1H-pyrazol-4-yl)urea formation at 1 uM incubated under dark condition for 6 hrs by LC-MS/MS analysis. The following applies: human. The class given is ADME, cell-based.
Data set [9] can be described thus: Cytotoxicity against HUVEC cells assessed as inhibition of cell growth. The class given is toxicity, cell-based. The following applies: human.
In data set [10] the test system is HEL. Briefly: Cytotoxicity against HEL cells assessed as inhibition of cell growth irradiated with 450 nm light. The class given is functional, cell-based. Particulars: Homo sapiens, light or radiation study.
Data set [11] relates to HEL. Briefly: Cytotoxicity against HEL cells assessed as inhibition of cell growth incubated under dark condition. Particulars: Homo sapiens. The class given is functional, cell-based.
Data set [12] has as its system HEL. Briefly: Inhibition of JAK/STAT phosphorylation in HEL cells assessed as reduction in STAT3 phosphorylation at 1 uM irradiated with 450 nm light by Western blot analysis relative to control. The class given is cell-based. The following applies: Homo sapiens.
The test system of data set [13] is HEL. Kind of data set: Inhibition of JAK/STAT phosphorylation in HEL cells assessed as reduction in STAT5 phosphorylation at 1 uM irradiated with 450 nm light by Western blot analysis relative to control. The class given is cell-based. Particulars: Homo sapiens. Background: Immunoblotting shows a protein as a band on a membrane.
Data set [14] concerns HEL. Briefly: Inhibition of JAK/STAT phosphorylation in HEL cells assessed as reduction in STAT3 phosphorylation at 1 uM incubated under dark condition by Western blot analysis relative to control. The class given is cell-based. Particulars: Homo sapiens.
Data set [15] deals with HEL. Kind of data set: Inhibition of JAK/STAT phosphorylation in HEL cells assessed as reduction in STAT5 phosphorylation at 1 uM incubated under dark condition by Western blot analysis relative to control. Particulars: Homo sapiens. The class given is cell-based.

`CC[C@@](C)(Nc1ccnc(-c2c[nH]c3ncccc23)n1)C(=O)NCC(F)(F)F` [DECERNOTINIB]: the pIC50 with HEL [1] was 5.59.
Same read-out and setting: the value for `C[C@@H]1CCN(C(=O)CC#N)C[C@@H]1N(C)c1ncnc2[nH]ccc12` [TOFACITINIB] was 5.42.
`N#CC[C@H](C1CCCC1)n1cc(-c2ncnc3[nH]ccc23)cn1` [RUXOLITINIB]: the pIC50 in the data set on HEL [1] was 5.13.
As for `CCN(CC)c1ccc2c(COC(=O)Oc3c(COC(=O)N4CCN(c5ccc(Nc6ncc(C)c(Nc7cccc(S(=O)(=O)NC(C)(C)C)c7)n6)cc5)CC4)cc(C)cc3COC(=O)n3cc(NC(=O)NC4CC4)c(-c4nc5cc(CN6CCOCC6)ccc5[nH]4)n3)cc(=O)oc2c1`, the remaining at 24 h in [2] was above 95.1%; in data set [3] it was above 82.8%; in data set [4] it was above 78.3%. The Drug metabolism entry was “Metabolite_Detected” in data set [5], “Metabolite_Detected” in data set [6], “Metabolite_Notdetected” in [7] and “Metabolite_Notdetected” in [8]. Besides, the negative logarithm of the IC50 (pIC50) in data set [9] is below 3.70; in the data set on HEL [10] it was 5.74; with HEL [11], below 3.70. Also, the inhibition in the data set with HEL [12] and in the data set with HEL [13] was 100% in each case. Also, the inhibition result in the data set on HEL [14] and with HEL [15] was “inactive” in each case.

What is called pIC50 is −log10 of the IC50, conventionally taken in molar units. What is called inhibition is the percentage by which the read-out fell short of the control.
